Experimental data from patent publication US11952593B2, “Detection and treatment of daughter number variations in cancer cells” (PharmacoGenetics Limited, priority 2020, dated 2024).

Tests used:
A549 cells = assay: Cell cytotoxicity assay (crystal violet), A549; format: cell-based, human; settings: A549, 24 hours, 50 μM wogonin, 20 μM 5-FU, absorbance 600 nm
Method: Cell cytotoxicity assay was carried out on 96 well plate, where cells were treated with neutral, acidic, alkaline pH and anti-cancer drug wogonin or 5-FU. After 24 hours, crystal violet (8% in methanol), and dye absorbed by live cells was extracted with sodium citrate (0.1 M) in 50% ethanol. Absorbance was read at 600 nm.
HepG2, HeLa and A549 cells were grown to a monolayer density of 1×10^3 per well in neutral growth medium overnight. There upon the cells were changed to various treatment media at neutral, acidic and alkaline pHs, neutral medium containing 50 μM wogonin and neutral medium containing 20 μM 5-FU, for 24 hours at 37° C. in humidified 5% CO2 atmosphere. Following the treatment, floating cells were removed, and the attached cells were stained with crystal violet (8% in methanol); the dye absorbed by the live cells was extracted with sodium citrate (0.1 M) in 50% ethanol [1 25], and quantitated by absorbance at 600 nm.

HepG2 cells = assay: Daughter-cell subgroups P1 through P8 in mitoses with DNV, HepG2; format: cell-based, human; settings: HepG2, 24 hours, wogonin 50 μM, 5-FU 20 μM
Text: “Daughter Number Variation” is a process that occurs during mitosis, where more than two daughter cells are produced per mitotic division. It is a two-stage process, wherein cell divisions of mono-nucleate, bi-nucleate, tri-nucleate and tetra-nucleate mother cells at Stage 1 produce subgroups of single mono-nucleate cells (herein referred to as P1), and subgroups containing one bi-nucleate cell and two mono-nucleate cells (herein referred to as P2). Stage 1 is followed by Stage 2, during which time some of the daughter cells from Stage 1 fuse to produce multi-nucleate cell subgroups, where the different subgroups differ with respect to the number of constituent cells and their nucleate status (herein referred to as P3 through P8). All the subgroups from a single DNV mitosis stay close to one another to form a distinct cluster when the cell culture is not overly dense with cells.
P1 subgroup cells are daughter mono-nucleate cells resulting from mitoses with DNV that have not undergone any post-mitotic cell fusion. P2 subgroup daughter cells are clusters of one bi-nucleate cell and two mono-nucleate cells, which also have not undergone any post-mitotic cell fusion during DNV, whereas each of the multi-nucleated subgroups contains at least one cell that is generated from post-mitotic fusions between the Stage 1 cells. P3 through P8 are daughter cell subgroups, which result from cell fusions during DNV, and wherein each subgroup includes at least one multinucleate cell.
By way of example and not of limitation, there is at least one multinucleate cell with two nuclei in P3 and P5, one multinucleate cell with three nuclei in P4 and P6, one multinucleate cell with four nuclei in P7, and one multinucleate cell with five nuclei in P8, sharing the same cytoplasm. More specifically, P3 cell subgroups are clusters of one multinucleate cell with two nuclei and one mononucleate cell, P4 cell subgroups are one multinucleate cell with three nuclei, P5 cell subgroups are clusters of either two multinucleate cells with two nuclei or one multinucleate cell with two nuclei and one binucleate cell, P6 cell subgroups are clusters of one multinucleate cell with three nuclei and one mononucleate cell, P7 cell subgroups are one multinucleate cell with four nuclei, and P8 cell subgroups are one multinucleate cell with five nuclei. P1 through P8 cell subgroups are depicted in detail in FIG. 2.
The counts of P1 and P2 subgroups of cancer cells are then used to obtain their proportions based on the total number of cell subgroups P1 through P8 that resulted from mitotic DNVs during the predetermined period of time. The proportions are typically expressed as percentages. The proportion of P1 subgroup of cells is calculated as (number of P1 subgroups)+(total number of daughter cell subgroups)×100%, and the proportion of (P1 and P2) subgroup is calculated as (number of P1 subgroups+number of P2 subgroups)+(total number of daughter cell subgroups)×100%. This can also be expressed as (number of P1 subgroups)+(total number of P1 through P8 subgroups)×100%, or (number of P1 subgroups+number of P2 subgroups)+(total number of P1 through P8 subgroups)×100%, respectively.
To investigate DNVs, the human HepG2 hepatocellular carcinoma, HeLa cervical adenocarcinoma, and A549 lung adenocarcinoma cell lines, as well as the non-cancerous RPE1 line of hTRET-immortalized retina epithelial cells, were obtained from the American Type Culture Collection (ATCC, Manassas, Va., USA) and cultivated in Dulbecco's Modified Eagle Medium (DMEM) supplemented with 10% fetal bovine serum (Gemini Bio-Products, Sacramento. Calif.) under a humidified atmosphere of 5% C02 at 37° C. […]

| Compound | Cell death as compared to neutral pH (A549 cells) | Mitoses with DNV, number (HepG2 cells) | P1 + P2 subgroups, number (HepG2 cells) | P1 subgroups, number (HepG2 cells) | P2 subgroups, % of all P1 through P8 subgroups (HepG2 cells) | P2 subgroups, number (HepG2 cells) | P3 subgroups, % of all P1 through P8 subgroups (HepG2 cells) | P3 subgroups, number (HepG2 cells) | P4 subgroups, number (HepG2 cells) | P5 subgroups, % of all P1 through P8 subgroups (HepG2 cells) | P5 subgroups, number (HepG2 cells) | P6 subgroups, % of all P1 through P8 subgroups (HepG2 cells) | P6 subgroups, number (HepG2 cells) | P7 subgroups, number (HepG2 cells) | P8 subgroups, number (HepG2 cells) | further results |
| --- | --- | --- | --- | --- | --- | --- | --- | --- | --- | --- | --- | --- | --- | --- | --- | --- |
| O=c1[nH]cc(F)c(=O)[nH]1 [5-FU, 5-flurouracil] | increased cell death | 17 | 6 | 3 | (17.6) % | 3 | (35.2) % | 6 | 0 | (11.7) % | 2 | (17.6) % | 3 | 0 | 0 |  |
| COc1c(O)cc(O)c2c(=O)cc(-c3ccccc3)oc12 [Wogonin, wogonin] | increased cell death | 63 | 38 | 27 | (17.4) % | 11 | (12.7) % | 8 | 9 | (4.7) % | 3 | (4.7) % | 3 | 2 | 0 | P1 + P2 subgroups, % of all P1 through P8 subgroups (HepG2 cells): (60.3) %; P1 subgroups, % of all P1 through P8 subgroups (HepG2 cells): (42.8) %; P4 subgroups, % of all P1 through P8 subgroups (HepG2 cells): (14.2) %; P7 subgroups, % of all P1 through P8 subgroups (HepG2 cells): (3.1) %; P1 + P2 subgroups, % of all P1 through P8 subgroups (HepG2 cells; listed as wogonin): 60.3%; P1 subgroups, % of all P1 through P8 subgroups (HepG2 cells; listed as wogonin): 42.8% |
